Experiments:
[1] = Metabolic stability in human liver microsomes; format: in vitro ADME; conditions: 37 °C; for Clint: 0.5 µM; for half-life at 0.5 µM: read-out: Half-life (T1/2)
Procedure: (§1) Metabolic stability is an important parameter in the drug discovery pipeline. The metabolic stability of test compounds was evaluated in vitro using human, rat and mouse liver microsomes. The metabolic equation below determines the test compounds’ half-life (T1/2) and intrinsic clearance (Clint). Compound+ NADPH + H^++ O2 → oxidized analyte + NADP^++ H2O
(§2) The metabolic stability of the test compounds in human, rat, and mouse liver microsomes was determined using the method described in our previous work. Five microlitres of auranamide or patriscabratine (0.5 µM) were incubated in a reaction mixture at 37 °C for 0, 3, 6, 15, 30, 45 and 60 min. The concentration of test compounds in the reaction mixture was quantified using Agilent 1290 coupled with Q-TOF. The experiment was carried out in triplicate. The concentration versus time plot calculated the elimination rate constant (Kel). The below formulae were used to calculate the intrinsic clearance (Clint) and half-life (T1/2). The results are expressed as mean ± standard deviation from three experiments. Clint= Kel/0.5 ×52.5 T1/2= 0.693/Kel

Hepa-1c1c7 cells = test: MTT cytotoxicity on Hepa-1c1c7 cells; format: cell-based, murine; conditions: MTT assay, 24 h
Procedure: (§3) The cytotoxicity of the test compounds on RAW 264.7 and Hepa-1c1c7 cells was assessed using Vybrant® MTT Cell Proliferation Assay Kit following the manufacturer’s protocol. The cells were seeded at 5 × 10^5 cells/well and incubated for 24 h. Then, various concentrations (100 to 0.01 μM) of the test compounds were added and incubated for a further 24 h. The cell supernatant solution was replaced with the MTT assay solution and incubated for 4 h. The formazan crystals were dissolved in DMSO, and the optical density (OD) of the solution was measured at 570 nm (reference wavelength 630 nm) using Spectramax M3 microplate reader (Molecular Devices, LLC., San Jose, CA 95134, USA). The cell viability was calculated using the following formula, and the results are presented as mean ± SD. Percent cell viability %=ODtreated cells−ODblank/ODuntreated cells− ODblank×100%

[2] = Metabolic stability in rat liver microsomes; format: in vitro ADME; conditions: 37 °C; for Clint: 0.5 µM; for half-life at 0.5 µM: read-out: Half-life (T1/2)
Procedure: as §1, §2

IL-1β = IL-1β ELISA in LPSEc challenged RAW 264.7 cells; format: cell-based, murine; conditions: 10 μM; vs untreated cells; LPSEc alone 4.56 ± 0.13
Procedure: (§4) The anti-inflammatory activity of the test compounds was assessed in E. coli lipopolysaccharide (LPSEc)-induced inflammation in RAW 264.7 cells. Cells (5 × 10^5 cells/well) were incubated for 24 h in a 24-well plate. Then, the cells were challenged with LPSEc (100 ng/mL) for 4 h. The test compounds (10, 1, 0.1, 0.01 and 0.001 µM) or positive control (dimethyl fumarate, 10 μM) were then added and incubated for 24 h. The levels of NO production and pro-inflammatory cytokines (IL-1β, IL-6, IFN-γ and TNF-α) were determined using the supernatant solution. The cell pellet was used to measure the levels of COX-2, NF-κB p65, NRF2, and HO-1.
(§5) Single-Analyte ELISArray kits were used to quantify the pro-inflammatory cytokines (IL-1β, IL-6, IFN-γ and TNF-α) in the cell supernatant following the manufacturer’s instructions. The standard protein (50 μL) or test sample solutions (50 μL) were added to a well (in duplicate) and incubated for 2 h at room temperature. The contents in the well were washed with wash buffer, and then 100 µL of biotinylated detection antibody solution was added and incubated for 1 h at room temperature. […] The optical density was measured at 450/570 nm using a Spectramax microplate reader M3 (Molecular Devices, LLC., San Jose, CA 95134, USA). The levels of pro-inflammatory cytokines (in pg/mL) in test samples were calculated using the standard curve. […]

NQO1 = NQO1 activity, Prochaska microtiter plate bioassay in Hepa-1c1c7 cells; format: cell-based, murine; conditions: 48 h
Procedure: The NRF2 activation is associated with increased NQO1 activity and an increased concentration of NRF2 and HO-1 in the nucleus. The protective role of NRF2/HO-1 in inflammatory diseases is well documented. Therefore, the NRF2 and HO-1 levels in nuclear extracts of the RAW 264.7 cells were determined using ELISA kits and expressed as fold changes with reference to the negative control. The effect of test compounds on NQO1 activity was determined using the reported method in murine hepatoma cells (Hepa-1c1c7). Dimethyl fumarate was used as a positive control, and 0.1% DMSO was used as a negative control. […] The CD value (concentration of test compound to double the NQO1 activity) of auranamide was 6.81 ± 0.18 μM, while for patriscabratine it was 4.28 ± 0.17 μM.
The “Prochaska” Microtiter Plate Bioassay was used to measure the NQO1 activity in hepatoma cells (Hepa-1c1c7). The cells (5 × 10^5 per well) were seeded and incubated with either auranamide or patriscabratine (10, 1, 0.1, 0.01, and 0.001 µM) or a reference drug (dimethyl fumarate, 10 μM) for 48 h. […] The protein concentration was determined using Bradford’s reagent. […] The optical density of the solution was determined at 610 nm using a Spectramax M3 microplate reader (Molecular Devices, LLC., San Jose, CA 95134, USA), and the values were normalized to the total protein content.

HO-1 = HO-1 ELISA, nuclear extract of RAW 264.7 cells; format: cell-based, murine; conditions: 10 μM, vs negative control
Procedure: (§6) The NRF2 activation is associated with increased NQO1 activity and an increased concentration of NRF2 and HO-1 in the nucleus. The protective role of NRF2/HO-1 in inflammatory diseases is well documented. Therefore, the NRF2 and HO-1 levels in nuclear extracts of the RAW 264.7 cells were determined using ELISA kits and expressed as fold changes with reference to the negative control. The effect of test compounds on NQO1 activity was determined using the reported method in murine hepatoma cells (Hepa-1c1c7). Dimethyl fumarate was used as a positive control, and 0.1% DMSO was used as a negative control. […]
(§7) The anti-inflammatory activity of the test compounds was assessed in E. coli lipopolysaccharide (LPSEc)-induced inflammation in RAW 264.7 cells. […] The levels of NO production and pro-inflammatory cytokines (IL-1β, IL-6, IFN-γ and TNF-α) were determined using the supernatant solution. […]
(§8) The COX-2 level was estimated in the cytoplasmic extract, whereas NF-κB p65, NRF-2 and HO-1 levels were estimated in nuclear extract. […] The protein concentration in the extracts was determined using Bradford’s reagent. […] The levels were measured in triplicate. The absorbance was measured using a Spectramax M3 microplate reader (Molecular Devices, LLC., San Jose, CA 95134, USA). […]

IL-6 = IL-6 ELISA in LPSEc challenged RAW 264.7 cells; format: cell-based, murine; conditions: 10 μM; vs untreated cells; LPSEc alone 6.91 ± 0.05
Procedure: as §4, §5

TNF-α = TNF-α ELISA in LPSEc challenged RAW 264.7 cells; format: cell-based, murine; conditions: 10 μM; vs untreated cells; LPSEc alone 4.33 ± 0.17
Procedure: as §4, §5

[3] = tested on: nitric oxide (NO) production; test: NO production (Griess assay) in LPSEc-stimulated RAW264.7 cells; format: cell-based, murine; conditions: for reduced the NO production by: 10 μM, LPSEc-stimulated NO = 100%; for IC50: Mus musculus, 100 ng/mL LPSEc, RAW264.7, 24 h, read-out: IC50 (concentration required to reduce the NO production by 50%)
Procedure: The anti-inflammatory activity of the compounds was tested using Escherichia coli lipopolysaccharide (LPSEc) stimulated RAW264.7 cells. Nitric oxide (NO) is a classical marker used to measure inflammation. The Griess assay was used to determine NO production. The cells were stimulated with 100 ng/mL LPSEc and the NO produced was considered to be at 100%. The anti-inflammatory effect of the compounds was assessed by adding the compounds (10, 1, 0.1, 0.01, and 0.001 µM) to the LPSEc stimulated cells. The efficacy of the compounds was assessed by calculating their ability to reduce the LPSEc stimulated NO production. Dimethyl fumarate was used as a positive control, and 0.1% DMSO was used as a negative control. […] The anti-inflammatory effect was not observed at concentrations of less than 0.1 μM.
as §4
LPSEc activates inducible nitric oxide synthase (iNOS) in RAW 264.7 cells and produces nitric oxide (NO), an important mediator of inflammation. The NO content in the supernatant solution was measured using the Griess assay following the manufacturer’s instructions. The optical density (OD) was measured at 540 nm using a Spectramax M3 microplate reader (Molecular Devices, LLC., San Jose, CA 95134, USA). The formula provided below was used to calculate the percentage of NO production. Percent NO production=ODtreated cells− ODblank/ODuntreated cells− ODblank×100%
The activity of the test compounds was tested in triplicate on each plate. The results are presented as mean ± SD. Treatment was performed with either LPSEc alone or LPSEc and test compounds were designated as treated cells. RAW264.7 cells treated with vehicle (0.1% DMSO) were designated as untreated cells.

RAW264.7 cells = test: MTT cytotoxicity on RAW264.7 cells; format: cell-based, murine; conditions: MTT assay, 24 h, RAW 264.7 cells
Procedure: as §3

COX-2 = COX-2 ELISA, cytoplasmic extract of LPSEc-stimulated RAW 264.7 cells; format: cell-based, murine; conditions: 10 μM; LPSEc control 8.09 ± 0.08
Procedure: as §4
(§9) The COX-2 level was estimated in the cytoplasmic extract, whereas NF-κB p65, NRF-2 and HO-1 levels were estimated in nuclear extract. The nuclear extraction kit was used to separate the cytoplasm from the nucleus following the manufacturer’s instructions. The cell pellet was incubated in 100 µL of pre-extraction buffer on ice for 10 min, vortexed, and centrifuged. The supernatant cytoplasmic extract was collected. […] The protein concentration in the extracts was determined using Bradford’s reagent. […] The levels were measured in triplicate. The absorbance was measured using a Spectramax M3 microplate reader (Molecular Devices, LLC., San Jose, CA 95134, USA). […]

IFN-γ = IFN-γ ELISA in LPSEc challenged RAW 264.7 cells; format: cell-based, murine; conditions: 10 μM; vs untreated cells; LPSEc alone 8.62 ± 0.26
Procedure: as §4, §5

NF-κB p65 = NF-κB p65 ELISA, nuclear extract of LPSEc-stimulated RAW 264.7 cells; format: cell-based, murine; conditions: 10 μM; LPSEc control 8.40 ± 0.09
Procedure: as §4, §9

[4] = Metabolic stability in mouse liver microsomes; format: in vitro ADME; conditions: 37 °C; for Clint: 0.5 µM; for half-life at 0.5 µM: read-out: Half-life (T1/2)
Procedure: as §1, §2

NRF2 = NRF2 ELISA, nuclear extract of RAW 264.7 cells; format: cell-based, murine; conditions: 10 μM, vs negative control
Procedure: as §6, §7, §8

Row | Clint [1] [mL/min/g liver] | half-life at 0.5 µM [1] [min] | Clint [2] [mL/min/g liver] | half-life at 0.5 µM [2] [min] | IC50 [3] [nM] | Clint [4] [mL/min/g liver] | half-life at 0.5 µM [4] [min] | SMILES | concentrations found to be cytotoxic (Hepa-1c1c7 cells) | IL-1β fold change (IL-1β) [fold change] | CD value (concentration of test compound to double the NQO1 activity) (NQO1) [µM] | HO-1 upregulation (HO-1) [fold] | IL-6 fold change (IL-6) [fold change] | TNF-α fold change (TNF-α) [fold change] | reduced the NO production by [3] [%] | concentrations found to be cytotoxic (RAW264.7 cells) | COX-2 fold change (COX-2) [fold changes] | IFN-γ fold change (IFN-γ) [fold change] | NF-κB p65 fold change (NF-κB p65) [fold changes] | NRF2 upregulation (NRF2) [fold]
1 | 13.27 ± 0.42 | 5.48 | 18.53 ± 0.56 | 3.93 | 1850 ± 930 | 18.64 ± 0.51 | 3.9 | CC(=O)NC(COC(=O)C(Cc1ccccc1)NC(=O)c1ccccc1)Cc1ccccc1 (centres unmarked) [Patriscabratine] | higher than 10 µM | 1.96 ± 0.12 | 4.28 ± 0.17 | 1.83 ± 0.07 | 2.51 ± 0.38 | 2.53 ± 0.18 | 30.84 | higher than 10 µM | 2.17 ± 0.31 | 4.15 ± 0.21 | 2.25 ± 0.27 | 2.37 ± 0.06
2 | 10.18 ± 0.35 | 7.14 | 17.22 ± 0.46 | 4.23 | 1220 ± 950 | 16.18 ± 0.43 | 4.5 | O=C(N[C@@H](COC(=O)[C@H](Cc1ccccc1)NC(=O)c1ccccc1)Cc1ccccc1)c1ccccc1 [Auranamide] | higher than 10 µM | 2.05 ± 0.16 | 6.81 ± 0.18 | 1.74 ± 0.09 | 2.85 ± 0.31 | 2.42 ± 0.24 | 33.22 | higher than 10 µM | 2.53 ± 0.25 | 4.06 ± 0.19 | 2.13 ± 0.20 | 2.66 ± 0.16

— article PMC9370761, “Anti-Inflammatory Effects of Auranamide and Patriscabratine—Mechanisms and In Silico Studies” (Molecules, 2022)
